Experimental data reported in patent publication EP1075467B1, “PYRAZOLE DERIVATIVES AS P-38 MAP KINASE INHIBITORS” (F. Hoffmann-La Roche AG, priority 1998, dated 1999).
Where a name gives a salt, the structure may show the parent alone. Read-outs that look alike come from different tables or passages of the source.

Key:
[1] = test system: TNF-α Production In Rats; assay: Inhibition of LPS-induced TNF-α production in rats, in vivo assay; set-up: species or system Female Sprague-Dawley rats; conditions: dosed orally at 30 mg, LPS 50 µg/kg intraperitoneally after 30 min, serum TNF-α 1.5 h later by ELISA
Protocol: Female Sprague-Dawley rats weighing 110-140 grams (Charles River, Hollister, CA) were acclimated for one week. Groups containing 8 […] each were dosed orally either with the test compounds dissolved in an aqueous vehicle containing 0.9% sodium chloride, 0.5% sodium carboxymethyl-cellulose, 0.4% polysorbate 80, 0.9% benzyl alcohol (CMC vehicle) or only vehicle (control group). After 30 min., the […] were injected intraperitoneally with 50 µg/kg of LPS (Sigma, St. Louis, MO).

[2] = test system: TNF-α Production In THP1 Cells; assay: Inhibition of LPS-induced TNF-α production in THP1 cells, in vitro assay; format: cell-based, human; conditions: THP-1 cells, LPS 0.5 µg/ml, 2 h, TNF-α in supernatant by ELISA, read-out: IC50 (concentration corresponding to half-maximal reduction in 450 nm absorbance), TNF-α release
Protocol: The ability of the compounds of this invention to inhibit the TNF-α release was determined using a minor modification of the methods described in Blifeld, C. et al. Transplantation, Vol. 51(2), 498-503, (1991). THP-1 cells were suspended in culture medium [RPMI (Gibco-BRL, Gailthersburg, MD) containing 15% fetal bovine serum, 0.02 mM 2-mercaptoethanol], at a concentration of 2.5 x 10^6 cells/ml and then plated in 96 well plate (0.2 ml aliquots in each well). Test compounds were dissolved in DMSO and then diluted with the culture medium such that the final DMSO concentration was 5%. 20 μl aliquots of test solution or only medium with DMSO (control) were added to each well. The cells were incubated for 30 min., at 37 °C. LPS (Sigma, St. Louis, MO) was added to the wells at a final concentration of 0.5 μg/ml, and cells were incubated for an additional 2 h. At the end of the incubation period, culture supernatants were collected and the amount of TNF-α present was determined using an ELISA assay as described below. The amount of human TNF-α present was determined by a specific trapping ELISA assay using two anti-TNF-α antibodies (2TNF-H22 and 2TNF-[…]) described in Reimund, J. M., et al. GUT. Vol. 39(5), 684-689 (1996). Polystyrene 96-well plates were coated with 50 μl per well of antibody 2TNF-H22 in PBS (10 μg/ml) and incubated in a humidified chamber at 4 °C overnight. The plates were washed with PBS and then blocked with 5% nonfat-dry milk in PBS for 1 hour at room temperature and washed with 0.1% BSA (bovine serum albumin) in PBS. TNF standards were prepared from a stock solution of human recombinant TNF-α (R&D Systems, Minneapolis, MN). The concentration of the standards in the assay began at 10 ng/ml followed by 6 half log serial dilution's. […] Optical density of the sample and the reference were read at 450 nm and 650 nm, respectively. TNF-α levels were determined from a graph relating the optical density at 450 nm to the concentration used. The IC50 value was defined as the concentration of the test compound corresponding to half-maximal reduction in 450 nm absorbance. […]

| SMILES | % Inhibition (TNF-α content in the test group relative to the vehicle treated group) [1] [%] | IC50 ([2]; Homo sapiens) [nM] | also measured |
| --- | --- | --- | --- |
| Nc1c(C(=O)c2cccc(C#CCN3CCOCC3)c2)cnn1-c1ccc(F)cc1 [compound 3, 5-Amino-1-(4-fluorophenyl)-4-[3-{3-(morpholin-4-yl)prop-1-ynyl}benzoyl]pyrazole] | 96 | – | – |
| Nc1c(C(=O)c2cccc(CCCN3CCOCC3)c2)cnn1-c1ccc(F)cc1 [compound 6, 5-Amino-1-(4-fluorophenyl)-4-[3-(3-morpholin-4-ylpropyl)benzoyl]pyrazole hydrochloride] | – | 1040 | – |
| CNC(=O)COc1cccc(C(=O)c2cnn(-c3ccc(F)cc3)c2N)c1 [compound 34, 5-Amino-1-(4-fluorophenyl)-4-[3-(methylaminocarbonylmethyloxy)-benzoyl]pyrazole] | 75 | – | – |
| CN1CCN(C(=O)COc2cccc(C(=O)c3cnn(-c4ccc(F)cc4)c3N)c2)CC1 [compound 38] | – | – | IC50 [2]: 690 nM |
| Nc1c(C(=O)c2cccc(CCS(N)(=O)=O)c2)cnn1-c1ccc(F)cc1 [compound 50, 5-Amino-4-[3-(2-aminosulfonylethyl)benzoyl]-1-(4-fluorophenyl)pyrazole] | – | 510 | – |
